Experimental data taken from paper PMC11050443, “Discovery of Strong 3-Nitro-2-Phenyl-2H-Chromene Analogues as Antitrypanosomal Agents and Inhibitors of Trypanosoma cruzi Glucokinase” (International Journal of Molecular Sciences, 2024).
Values joined by “and” are separate entries in the source; they are usually repeats but may differ in a detail not shown here. Identical values can stand only once.

Key:
[1] = system: T. cruzi (Tulahuen strain) infective form co-cultured in NIH-3T3 fibroblasts; assay: In vitro T. cruzi biological assay (β-galactosidase/CPRG); type: cell-based, Trypanosoma cruzi; conditions: for IC50: Tulahuen strain infective form growth inhibition co-cultured in NIH-3T3 fibroblasts, 4 days, N = 3; for T. cruzi growth inhibition (in words): efficacy in IC50
Method: General methods for the preparation of in vitro cell cultures involving T. cruzi parasites and mammalian cells along with the exposure to inhibitors has previously been described by Andriani and colleagues. T. cruzi (Tulahuen strain) that expresses β-galactosidase was harvested by centrifugation at 2500 rpm for 7 min. Parasites were rinsed twice with DMEM lacking phenol red and supplemented with 2% fetal bovine serum (FBS) and 1% penicillin—streptomycin—L-glutamine (PSG); the final concentrations of the PSG components were 100 U/mL penicillin, 0.1 mg/mL streptomycin, and 0.292 mg/mL L-glutamine. It was necessary to exclude phenol red since it interferes with the absorbance reading at λ = 590 nm. The parasites were centrifuged again for 7 min at 2500 rpm and the 50 mL tubes were carefully removed from the centrifuge. The tubes were placed on a rack with an incubator so that the trypomastigotes would move out of the pellet in a timeframe of 3–5 h. During this period, 100 μL of NIH-3T3 cells (50,000 cells) were plated per well in a transparent, clear, flat-bottom, and sterile 96-well microplate. This plate was placed in an incubator for 3 h at 37 °C to allow the cells to attach. The 3-nitro-2-phenyl-2H-chromene compounds (inhibitors) that were prepared as 10.0 mM stock solutions in 100% DMSO were thawed from −80 °C to room temperature. The compound solutions were diluted to their desired working concentrations, which ranged from 0.0781–10.0 μM. This was accomplished by serial dilution using a 2-fold dilution. A total of 100 μL of parasites was added to each well, which contained 50,000 trypomastigotes, and were incubated for 4 days. Using a multichannel pipette, 50.0 μL of the substrate solution [500 μM CPRG in phosphate buffered saline supplemented with 0.5% detergent NP-40] was added to each well of the 96-well microplate. The plate was placed into an incubator for 4 h followed by measuring absorbance readings at λ = 590 nm using a Victor Nivo multimode microplate reader (PerkinElmer, Inc.; Shelton, CT, USA). All measurements were performed in triplicate; absorbance values were proportional to parasite cell viability. IC50 determinations for percent growth inhibition were processed using GraphPad Prism 10.0. Amphotericin B was used as a positive control, the final solution concentration of which was 4.0 μM (prepared as a 270 μM stock solution). Four control conditions were carried out, as follows: (a) NIH-3T3 cells and parasites, (b) NIH-3T3 cells without parasites, (c) NIH-3T3 cells, parasites, and 4.0 μM amphotericin B, and (d) the medium alone.

NIH-3T3 fibroblasts = assay: In vitro cytotoxicity assay of mammalian NIH-3T3 fibroblasts (Alamar blue); type: cell-based; conditions: NIH-3T3 fibroblast growth inhibition, host cell toxicity; 4 days; N = 3
Method: The in vitro cell culturing of mammalian NIH-3T3 fibroblasts following treatment with inhibitors to assess for cytotoxicity has previously been described. DMEM lacking phenol red and supplemented with 2% FBS and 1% PSG was warmed up. NIH-3T3 cells were trypsinized, as described in the cell culture protocol. When cells became detached, they were harvested in DMEM lacking phenol red and including 2% FBS and 1% PSG. The cells were centrifuged at 1000 rpm for 5 min, the medium was discarded, and the cells were resuspended in fresh DMEM lacking phenol red and including 2% FBS and 1% PSG. The cells were centrifuged at 1000 rpm for 5 min, resuspended in the medium, counted, and diluted to 500,000 cells/mL. Dilution was accomplished by transferring the stock number of cells into a sterile basin and 100 μL of cells was added to each well of a transparent, sterile, flat-bottom, 96-well microplate (50,000 cells/well) using a multichannel pipette. The plate was placed into the incubator for 3 h to allow cells to attach. The 3-nitro-2-phenyl-2H-chromene compounds were thawed from −80 °C to room temperature. The compounds were prepared as 10.0 mM stock solutions in 100% DMSO. A volume of 2.0 μL of a given compound plus a volume of 98.0 μL of fresh media were both added to a well in the first row of the 96-well microplate; this was performed for each compound to be tested. The solutions were mixed with a micropipette, followed by the transfer of 100 μL to the next row and repeated. The compound solutions ranged from 0.0139–30.3 μM and this was accomplished by serial dilution using a 3-fold dilution. After incubation for 4 days, 10.0 μL of Alamar blue was added to each well. Absorbance readings were measured using a Victor Nivo multimode microplate reader (PerkinElmer, Inc.; Shelton, CT, USA) at λ = 590 nm. All measurements were performed in triplicate and TC50 determinations for percent growth inhibition were carried out using GraphPad Prism 10.0. The final volume per well of cells and a given compound was 100 μL and this volume became 110 μL after the addition of Alamar blue. The detergent SDS was used as a positive control and its final solution concentration was 0.1%. Three controls were carried out, as follows: (a) NIH-3T3 cells alone, (b) perished NIH-3T3 cells (NIH-3T3 cells in the presence of 0.1% SDS), and (c) the medium alone.

TcGlcK = system: TcGlcK; parameters: method as in PMID 31133533; conditions: earlier HTS campaign of 13,040 compounds; cited from earlier work
[2] = Trypanosoma cruzi, TULAHUEN, NIH3T3, 96 h

For `CCOc1ccc(C2Oc3ccc(Br)cc3C=C2[N+](=O)[O-])cc1OCC` (stereo not shown) [Compound 2, 6-Bromo-2-(3,4-diethoxyphenyl)-3-nitro-2H -chromene], the IC50 [1, 2] was 1.44 ± 0.07 µM.

With `O=[N+]([O-])C1=Cc2cc(Br)cc(Br)c2OC1c1c(Cl)cccc1Cl` (stereo not shown) [Compound 7, 2-(2,6-Dichlorophenyl)-6,8-dibromo-3-nitro-2H -chromene] the IC50 [1, 2] was 0.64 ± 0.02 µM, the “T. cruzi growth inhibition (in words)” value [1] was “nanomolar efficacy” and the “NIH-3T3 TC50” value (NIH-3T3 fibroblasts) was 11.9 ± 0.51 µM.

Compound `COc1ccc(C2Oc3c(Br)cc(Br)cc3C=C2[N+](=O)[O-])cc1OC` (stereo not shown) [Compound 5, 6,8-Dibromo-2-(3,4-dimethoxyphenyl)-3-nitro-2H -chromene] has an IC50 [1, 2] of 0.64 ± 0.23 µM.

For `CCOc1ccc(C2Oc3ccccc3C=C2[N+](=O)[O-])cc1OCC` (stereo not shown) [Compound 10, 2-(3,4-Diethoxyphenyl)-3-nitro-2H -chromene], the IC50 [1, 2] was 2.56 ± 0.26 µM and the “NIH-3T3 TC50” value (NIH-3T3 fibroblasts) was 9.45 ± 2.20 µM.

In the case of `COc1ccc(C2Oc3c(cc(Br)cc3OC)C=C2[N+](=O)[O-])cc1OC` (stereo not shown) [Compound 3, 6-Bromo-2-(3,4-dimethoxyphenyl)-8-methoxy-3-nitro-2H -chromene], the IC50 [1, 2] is reported as 0.96 ± 0.02 µM and the “NIH-3T3 TC50” value (NIH-3T3 fibroblasts) is reported as 17.5 ± 1.90 µM.

In the case of `O=[N+]([O-])C1=Cc2ccccc2OC1c1c(Cl)cccc1Cl` (stereo not shown) [Compound 13, 2-(2,6-Dichlorophenyl)-3-nitro-2H -chromene], the IC50 [1, 2] is reported as 3.08 ± 0.08 µM.

In the case of `CCOc1ccc(C2Oc3c(Cl)cc(Cl)cc3C=C2[N+](=O)[O-])cc1OCC` (stereo not shown) [Compound 9, 6,8-Dichloro-2-(3,4-diethoxyphenyl)-3-nitro-2H -chromene], the IC50 (TcGlcK) is listed as 4.8 µM and the “NIH-3T3 TC50” value (NIH-3T3 fibroblasts) is listed as 17.5 ± 1.60 µM.

`CCOc1ccc(C2Oc3c(cc(Br)cc3OC)C=C2[N+](=O)[O-])cc1OC` (stereo not shown) [Compound 8, 6-Bromo-2-(4-ethoxy-3-methoxyphenyl)-8-methoxy-3-nitro-2H -chromene] showed an IC50 [1, 2] of 1.85 ± 0.15 µM.

In the case of `CCOc1ccc(C2Oc3ccc(Br)cc3C=C2[N+](=O)[O-])cc1OC` (stereo not shown) [Compound 1, 6-Bromo-2-(4-ethoxy-3-methoxyphenyl)-3-nitro-2H -chromene], the IC50 [1, 2] is given as under 2 µM, the IC50 [1] is given as 1.49 ± 0.07 µM and the IC50 (TcGlcK) is given as 6.1 µM. The “NIH-3T3 TC50” value (NIH-3T3 fibroblasts) was 16.0 ± 1.84 µM.

With `CCOc1ccc(C2Oc3c(Br)cc(Br)cc3C=C2[N+](=O)[O-])cc1OC` (stereo not shown) [Compound 6, 6,8-Dibromo-2-(4-ethoxy-3-methoxyphenyl)-3-nitro-2H -chromene] the IC50 [1, 2] was at least 2 µM, the IC50 [1] was 2.56 ± 0.26 µM and the “NIH-3T3 TC50” value (NIH-3T3 fibroblasts) was 18.1 ± 0.24 µM.

For `O=[N+]([O-])C1=Cc2cc(Br)ccc2OC1c1ccccc1Cl` (stereo not shown) [Compound 11, 6-Bromo-2-(2-chlorophenyl)-3-nitro-2H -chromene], the “T. cruzi growth inhibition (in words)” value [1] was “nanomolar efficacy” and the “NIH-3T3 TC50” value (NIH-3T3 fibroblasts) was 4.12 µM and 4.12 ± 1.95 µM.

For `COc1ccc(C2Oc3ccc(Br)cc3C=C2[N+](=O)[O-])cc1OC` (stereo not shown) [Compound 4, 6-Bromo-2-(3,4-dimethoxyphenyl)-3-nitro-2H -chromene], the IC50 [1, 2] was under 2 µM, the IC50 [1] was 1.31 ± 0.15 µM and the “NIH-3T3 TC50” value (NIH-3T3 fibroblasts) was 16.4 ± 1.91 µM.
